Assay results: paper doi:10.1101/2021.10.07.463234v2 (biorxiv, 2021)
Counter-ions that a name gives are not always drawn.

These compounds were tested against SARS-CoV-2 Mac1 (Severe acute respiratory syndrome coronavirus 2, UniProt P0DTD1) (assay: biochemical). Details: 100 µM; inhibitor.

Structure (SMILES)	%inhibition
Cc1cc(C(C#N)c2ccc(Cl)cc2)c(Cl)cc1NC(=O)c1cc(I)cc(I)c1O (centres unmarked) [Closantel]	12.2%

Same assay, conditions: read-out: %inhibition

Structure (SMILES)	inhibition at 100 µM
O=C(O)CC(O)(CC(=O)O)C(=O)O [Citric acid trilithium salt tetrahydrate]	0%
Nc1nc(Cl)nc2c1ncn2[C@H]1C[C@H](O)[C@@H](CO)O1 [Cladribine]	1.17%
CC[C@H]1OC(=O)[C@H](C)[C@@H](O[C@H]2C[C@@](C)(OC)[C@@H](O)[C@H](C)O2)[C@H](C)[C@@H](O[C@@H]2O[C@H](C)C[C@H](N(C)C)[C@H]2O)[C@](C)(OC)C[C@@H](C)C(=O)[C@H](C)[C@@H](O)[C@]1(C)O [Clarithromycin]	24.2%
CCCC(=O)OCOC(=O)C1=C(C)NC(C)=C(C(=O)OC)C1c1cccc(Cl)c1Cl (centres unmarked) [Clevidipine Butyrate]	0%
Cc1cn([C@H]2O[C@@H](CO)[C@H](O)[C@H]2F)c(=O)[nH]c1=O [Clevudine]	18.3%
CC(C)(C)C(=O)C(Oc1ccc(Cl)cc1)n1ccnc1 (centres unmarked) [Climbazole]	18.5%
CCC[C@@H]1C[C@@H](C(=O)N[C@@H]([C@H]2O[C@H](SC)[C@H](OP(=O)(O)O)[C@@H](O)[C@H]2O)[C@H](C)Cl)N(C)C1 [Clindamycin Phosphate]	0%
CCCCCCCCCCCCCCCC(=O)O[C@@H]1[C@@H](O)[C@@H](O)[C@@H]([C@H](NC(=O)[C@@H]2C[C@@H](CCC)CN2C)[C@H](C)Cl)O[C@@H]1SC [Clindamycin palmitate HCl]	22.9%
CCC(C)(Oc1ccc(C2(c3ccc(OC(C)(CC)C(=O)O)cc3)CCCCC2)cc1)C(=O)O (centres unmarked) [Clinofibrate]	0%
Oc1c(I)cc(Cl)c2cccnc12 [Clioquinol]	6.9%
CCC(=O)O[C@]1(C(=O)CCl)[C@@H](C)C[C@H]2[C@@H]3CCC4=CC(=O)C=C[C@]4(C)[C@@]3(F)[C@@H](O)C[C@@]21C [Clobetasol propionate]	9.68%
Nc1nc(Cl)nc2c1ncn2[C@@H]1O[C@H](CO)[C@@H](O)[C@@H]1F [Clofarabine]	44.7%
CC(C)/N=c1\cc2n(-c3ccc(Cl)cc3)c3ccccc3nc-2cc1Nc1ccc(Cl)cc1 [Clofazimine]	5.33%
CC(C)(Oc1ccc(Cl)cc1)C(=O)O [Clofibric Acid]	17.2%
CC(C)(C)CC(C)(C)c1ccc(O)c(Cc2ccc(Cl)cc2Cl)c1 [Clofoctol]	0%
Clc1cccc(Cl)c1NC1=NCCN1 [Clonidine HCl]	0%
Clc1ccc(C(OCCN2CCCCC2)c2ccccc2)cc1 (centres unmarked) [Cloperastine hydrochloride]	5.64%
COC(=O)[C@H](c1ccccc1Cl)N1CCc2sccc2C1 [Clopidogrel]	0%
Cc1nc(C)c(Cl)c(O)c1Cl [Clopidol]	0.707%
CC(C)NCC(O)c1ccccc1Cl (centres unmarked) [Clorprenaline HCl]	7.59%
Nc1cc(C(Cl)=C(Cl)Cl)c(S(N)(=O)=O)cc1S(N)(=O)=O [Clorsulon]	7.3%
Cc1onc(-c2ccccc2Cl)c1C(=O)N[C@@H]1C(=O)N2[C@@H]1SC(C)(C)[C@@H]2C(=O)O [Cloxacillin Sodium]	9.79%
Oc1ccc(Cl)c2cccnc12 [Cloxiquine]	8.06%
O=C(c1ccc(F)c(F)c1Nc1ccc(I)cc1F)N1CC(O)([C@@H]2CCCCN2)C1 [Cobimetinib (GDC-0973, RG7420)]	5.28%
CC(=O)OCC(=O)[C@@]1(O)CC[C@H]2[C@@H]3CCC4=CC(=O)CC[C@]4(C)[C@H]3C(=O)C[C@@]21C [Cortisone acetate]	10.7%
O=c1ccc2ccccc2o1 [Coumarin]	5.25%
CC1(COc2ccc3c(c2)ncn3-c2ccc3cccc(N4CCC(N)CC4)c3n2)COC1 [Crenolanib (CP-868596)]	0%
N#Cc1ccc(Oc2ccc3c(c2)COB3O)cc1 [Crisaborole (AN2728)]	10%
